pIC50: −log10 of the molar value. Activity calls are given as the source filed them. The rule behind the calls is not given here.
Key:
[1] = test system: HeLa; assay: Antiproliferative activity against human HeLa cells assessed as reduction in cell viability incubated for 72 hrs by MTT assay; assay type: functional, cell-based; details: Homo sapiens, HeLa, 72 h; read-out: IC50
[2] = test system: A549; assay: Induction of morphological changes in human A549 cells assessed as abnormal cell morphology at 1.1 uM measured after 12 hrs by acridine orange staining based fluorescence microscopy; assay type: functional
[3] = molecular target: Hepatocyte growth factor receptor (Homo sapiens, UniProt P08581); assay: Inhibition of c-Met (unknown origin)
[4] = Cmax in Sprague-Dawley rat at 10 mg/kg, po by LC-MS/MS analysis; assay type: ADME, organism-based; details: in vivo
[5] = test system: A549; assay: Induction of cell cycle arrest in human A549 cells assessed as accumulation of cells at G1 phase at 10 uM incubated for 24 hrs by propidium iodide staining based flow cytometry (reference value: 54.46%); assay type: functional
[6] = AUC(0 to infinity) in Sprague-Dawley rat at 10 mg/kg, po by LC-MS/MS analysis; assay type: ADME, organism-based; details: in vivo
[7] = test system: A549; assay: Induction of apoptosis in human A549 cells assessed as necrotic cells at 10 uM measured after 24 hrs by AnnexinV-FITC/PI staining based flow cytometry (reference value: 4.01%); assay type: functional
[8] = test system: A549; assay: Induction of cell cycle arrest in human A549 cells assessed as accumulation of cells at G1 phase at 5 uM incubated for 24 hrs by propidium iodide staining based flow cytometry (reference value: 54.46%); assay type: functional
[9] = test system: A549; assay: Induction of cell cycle arrest in human A549 cells assessed as accumulation of cells at G1 phase at […] incubated for 24 hrs by propidium iodide staining based flow cytometry (reference value: 54.46%); assay type: functional; details: dose 2.5 µM
[10] = AUC(0 to infinity) in Sprague-Dawley rat at 1 mg/kg, iv by LC-MS/MS analysis; assay type: ADME, organism-based; details: in vivo
[11] = molecular target: Vascular endothelial growth factor receptor 2 (Homo sapiens, UniProt P35968); assay: Inhibition of VEGFR2 (unknown origin)
[12] = AUC(0 to t) in Sprague-Dawley rat at 10 mg/kg, po by LC-MS/MS analysis; assay type: ADME, organism-based; details: in vivo
[13] = test system: A549; assay: Induction of apoptosis in human A549 cells assessed as viable cells at […] measured after 24 hrs by AnnexinV-FITC/PI staining based flow cytometry (reference value: 93.25%); assay type: functional; details: dose 2.5 µM, read-out: Activity
[14] = test system: A549; assay: cells; details: Homo sapiens, A549, 72 h
[15] = molecular target: Mast/stem cell growth factor receptor Kit (Homo sapiens, UniProt P10721); assay: Inhibition of c-Kit (unknown origin)
[16] = test system: A549; assay: Induction of morphological changes in human A549 cells assessed as reduction in cell number at 1.1 uM measured after 12 hrs by acridine orange staining based fluorescence microscopy; assay type: functional
[17] = test system: A549; assay: Induction of cell cycle arrest in human A549 cells assessed as accumulation of cells at S phase at […] incubated for 24 hrs by propidium iodide staining based flow cytometry (reference value: 38.18%); assay type: functional; details: dose 2.5 µM
[18] = test system: A549; assay: Induction of cell cycle arrest in human A549 cells assessed as accumulation of cells at G2 phase at […] incubated for 24 hrs by propidium iodide staining based flow cytometry (reference value: 7.36%); assay type: functional; details: dose 2.5 µM
[19] = AUC(0 to t) in Sprague-Dawley rat at 1 mg/kg, iv by LC-MS/MS analysis; assay type: ADME, organism-based; details: in vivo
[20] = molecular target: Dual specificity mitogen-activated protein kinase kinase 1 (Homo sapiens, UniProt Q02750); assay: Inhibition of MEK1 (unknown origin)
[21] = test system: A549; assay: Induction of cell cycle arrest in human A549 cells assessed as accumulation of cells at G2 phase at 5 uM incubated for 24 hrs by propidium iodide staining based flow cytometry (reference value: 7.36%); assay type: functional
[22] = test system: A549; assay: Induction of apoptosis in human A549 cells assessed as late apoptotic cells at […] measured after 24 hrs by AnnexinV-FITC/PI staining based flow cytometry (reference value: 1.47%); assay type: functional; details: dose 2.5 µM
[23] = test system: A549; assay: Induction of cell cycle arrest in human A549 cells assessed as accumulation of cells at S phase at 10 uM incubated for 24 hrs by propidium iodide staining based flow cytometry (reference value: 38.18%); assay type: functional
[24] = test system: A549; assay: Induction of apoptosis in human A549 cells assessed as necrotic cells at […] measured after 24 hrs by AnnexinV-FITC/PI staining based flow cytometry (reference value: 4.01%); assay type: functional; details: dose 2.5 µM
[25] = test system: A549; assay: Induction of apoptosis in human A549 cells assessed as viable cells at 10 uM measured after 24 hrs by AnnexinV-FITC/PI staining based flow cytometry (reference value: 93.25%); assay type: functional; details: read-out: Activity
[26] = Half life in Sprague-Dawley rat at 1 mg/kg, iv by LC-MS/MS analysis; assay type: ADME, organism-based; details: in vivo
[27] = test system: A549; assay: Induction of cell cycle arrest in human A549 cells assessed as accumulation of cells at G2 phase at 10 uM incubated for 24 hrs by propidium iodide staining based flow cytometry (reference value: 7.36%); assay type: functional
[28] = test system: A549; assay: Induction of morphological changes in human A549 cells assessed as nucleus division and dispersion at 1.1 uM measured after 12 hrs by acridine orange staining based fluorescence microscopy; assay type: functional, cell-based
[29] = test system: A549; assay: Induction of apoptosis in human A549 cells assessed as necrotic cells at 5 uM measured after 24 hrs by AnnexinV-FITC/PI staining based flow cytometry (reference value: 4.01%); assay type: functional
[30] = test system: A549; assay: Potency index, ratio of cabozantinib IC50 to test compound IC50 for antiproliferative activity against human A549 cells; assay type: functional
[31] = Cmax in Sprague-Dawley rat at 1 mg/kg, iv by LC-MS/MS analysis; assay type: ADME, organism-based; details: in vivo
[32] = test system: A549; assay: Induction of apoptosis in human A549 cells assessed as early apoptotic cells at 10 uM measured after 24 hrs by AnnexinV-FITC/PI staining based flow cytometry (reference value: 1.26%); assay type: functional
[33] = test system: A549; assay: Induction of apoptosis in human A549 cells assessed as viable cells at 5 uM measured after 24 hrs by AnnexinV-FITC/PI staining based flow cytometry (reference value: 93.25%); assay type: functional; details: read-out: Activity
[34] = Half life in Sprague-Dawley rat at 10 mg/kg, po by LC-MS/MS analysis; assay type: ADME, organism-based; details: in vivo
[35] = Oral bioavailability in Sprague-Dawley rat at 10 mg/kg by LC-MS/MS analysis; assay type: ADME, organism-based; details: in vivo

Sequence of Mast/stem cell growth factor receptor Kit (P10721 whole entry): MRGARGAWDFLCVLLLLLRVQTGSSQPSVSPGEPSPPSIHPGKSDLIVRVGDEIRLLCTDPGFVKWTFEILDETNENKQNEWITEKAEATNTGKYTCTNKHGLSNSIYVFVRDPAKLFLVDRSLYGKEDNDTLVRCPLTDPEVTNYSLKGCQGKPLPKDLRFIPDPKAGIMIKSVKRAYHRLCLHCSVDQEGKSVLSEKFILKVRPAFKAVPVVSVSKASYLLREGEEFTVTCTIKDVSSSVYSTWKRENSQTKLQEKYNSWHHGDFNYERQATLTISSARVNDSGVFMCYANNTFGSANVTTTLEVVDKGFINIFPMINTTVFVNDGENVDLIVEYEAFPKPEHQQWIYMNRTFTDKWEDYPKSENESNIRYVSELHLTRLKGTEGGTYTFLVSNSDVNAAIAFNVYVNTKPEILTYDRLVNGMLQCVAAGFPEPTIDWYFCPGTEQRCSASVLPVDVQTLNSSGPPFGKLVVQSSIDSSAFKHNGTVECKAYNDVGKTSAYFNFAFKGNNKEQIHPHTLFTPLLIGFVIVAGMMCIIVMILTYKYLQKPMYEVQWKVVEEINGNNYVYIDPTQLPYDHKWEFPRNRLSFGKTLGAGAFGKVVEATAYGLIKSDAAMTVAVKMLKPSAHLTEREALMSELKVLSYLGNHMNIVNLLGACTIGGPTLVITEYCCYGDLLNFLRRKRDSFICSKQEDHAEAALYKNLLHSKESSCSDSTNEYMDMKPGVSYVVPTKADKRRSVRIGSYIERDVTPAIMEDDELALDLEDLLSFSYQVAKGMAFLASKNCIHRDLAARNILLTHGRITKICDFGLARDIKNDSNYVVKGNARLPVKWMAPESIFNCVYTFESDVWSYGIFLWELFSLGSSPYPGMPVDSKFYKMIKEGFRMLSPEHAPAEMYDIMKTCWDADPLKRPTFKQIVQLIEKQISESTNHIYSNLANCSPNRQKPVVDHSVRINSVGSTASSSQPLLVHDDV
Sequence of Vascular endothelial growth factor receptor 2 (P35968 whole entry): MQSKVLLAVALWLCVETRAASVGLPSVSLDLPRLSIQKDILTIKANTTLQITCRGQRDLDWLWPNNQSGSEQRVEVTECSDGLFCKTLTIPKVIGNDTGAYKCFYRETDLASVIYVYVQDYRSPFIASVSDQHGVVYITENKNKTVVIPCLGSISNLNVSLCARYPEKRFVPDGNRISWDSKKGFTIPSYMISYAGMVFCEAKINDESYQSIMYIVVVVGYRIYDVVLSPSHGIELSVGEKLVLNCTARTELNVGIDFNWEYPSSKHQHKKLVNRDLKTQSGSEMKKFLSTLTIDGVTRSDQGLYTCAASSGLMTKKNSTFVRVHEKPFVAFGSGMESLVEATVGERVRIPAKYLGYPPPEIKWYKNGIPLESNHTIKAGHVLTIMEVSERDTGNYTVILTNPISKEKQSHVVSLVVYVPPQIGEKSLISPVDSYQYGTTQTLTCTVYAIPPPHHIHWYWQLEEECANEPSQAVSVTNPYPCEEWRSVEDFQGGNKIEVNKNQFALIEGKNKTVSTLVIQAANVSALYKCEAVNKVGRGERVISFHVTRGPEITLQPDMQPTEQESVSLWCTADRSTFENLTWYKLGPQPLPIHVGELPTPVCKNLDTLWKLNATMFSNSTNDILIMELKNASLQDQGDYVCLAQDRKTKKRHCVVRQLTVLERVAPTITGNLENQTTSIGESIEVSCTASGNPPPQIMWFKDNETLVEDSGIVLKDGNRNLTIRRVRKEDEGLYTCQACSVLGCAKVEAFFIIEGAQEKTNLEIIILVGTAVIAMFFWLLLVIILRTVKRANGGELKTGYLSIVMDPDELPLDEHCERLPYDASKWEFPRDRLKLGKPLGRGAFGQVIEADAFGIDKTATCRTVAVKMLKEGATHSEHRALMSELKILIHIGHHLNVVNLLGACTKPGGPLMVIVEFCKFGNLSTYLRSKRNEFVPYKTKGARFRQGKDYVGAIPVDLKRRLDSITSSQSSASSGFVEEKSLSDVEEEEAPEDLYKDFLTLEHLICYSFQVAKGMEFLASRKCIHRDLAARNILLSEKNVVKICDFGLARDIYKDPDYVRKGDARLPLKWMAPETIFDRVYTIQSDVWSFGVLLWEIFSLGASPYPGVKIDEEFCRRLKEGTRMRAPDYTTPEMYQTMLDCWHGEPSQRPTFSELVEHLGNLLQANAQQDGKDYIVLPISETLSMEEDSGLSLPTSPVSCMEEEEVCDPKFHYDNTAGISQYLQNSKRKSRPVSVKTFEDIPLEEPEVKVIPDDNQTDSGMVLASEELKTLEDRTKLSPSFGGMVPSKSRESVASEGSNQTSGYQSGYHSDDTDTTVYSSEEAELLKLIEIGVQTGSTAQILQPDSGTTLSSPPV
Sequence of Hepatocyte growth factor receptor (P08581 whole entry): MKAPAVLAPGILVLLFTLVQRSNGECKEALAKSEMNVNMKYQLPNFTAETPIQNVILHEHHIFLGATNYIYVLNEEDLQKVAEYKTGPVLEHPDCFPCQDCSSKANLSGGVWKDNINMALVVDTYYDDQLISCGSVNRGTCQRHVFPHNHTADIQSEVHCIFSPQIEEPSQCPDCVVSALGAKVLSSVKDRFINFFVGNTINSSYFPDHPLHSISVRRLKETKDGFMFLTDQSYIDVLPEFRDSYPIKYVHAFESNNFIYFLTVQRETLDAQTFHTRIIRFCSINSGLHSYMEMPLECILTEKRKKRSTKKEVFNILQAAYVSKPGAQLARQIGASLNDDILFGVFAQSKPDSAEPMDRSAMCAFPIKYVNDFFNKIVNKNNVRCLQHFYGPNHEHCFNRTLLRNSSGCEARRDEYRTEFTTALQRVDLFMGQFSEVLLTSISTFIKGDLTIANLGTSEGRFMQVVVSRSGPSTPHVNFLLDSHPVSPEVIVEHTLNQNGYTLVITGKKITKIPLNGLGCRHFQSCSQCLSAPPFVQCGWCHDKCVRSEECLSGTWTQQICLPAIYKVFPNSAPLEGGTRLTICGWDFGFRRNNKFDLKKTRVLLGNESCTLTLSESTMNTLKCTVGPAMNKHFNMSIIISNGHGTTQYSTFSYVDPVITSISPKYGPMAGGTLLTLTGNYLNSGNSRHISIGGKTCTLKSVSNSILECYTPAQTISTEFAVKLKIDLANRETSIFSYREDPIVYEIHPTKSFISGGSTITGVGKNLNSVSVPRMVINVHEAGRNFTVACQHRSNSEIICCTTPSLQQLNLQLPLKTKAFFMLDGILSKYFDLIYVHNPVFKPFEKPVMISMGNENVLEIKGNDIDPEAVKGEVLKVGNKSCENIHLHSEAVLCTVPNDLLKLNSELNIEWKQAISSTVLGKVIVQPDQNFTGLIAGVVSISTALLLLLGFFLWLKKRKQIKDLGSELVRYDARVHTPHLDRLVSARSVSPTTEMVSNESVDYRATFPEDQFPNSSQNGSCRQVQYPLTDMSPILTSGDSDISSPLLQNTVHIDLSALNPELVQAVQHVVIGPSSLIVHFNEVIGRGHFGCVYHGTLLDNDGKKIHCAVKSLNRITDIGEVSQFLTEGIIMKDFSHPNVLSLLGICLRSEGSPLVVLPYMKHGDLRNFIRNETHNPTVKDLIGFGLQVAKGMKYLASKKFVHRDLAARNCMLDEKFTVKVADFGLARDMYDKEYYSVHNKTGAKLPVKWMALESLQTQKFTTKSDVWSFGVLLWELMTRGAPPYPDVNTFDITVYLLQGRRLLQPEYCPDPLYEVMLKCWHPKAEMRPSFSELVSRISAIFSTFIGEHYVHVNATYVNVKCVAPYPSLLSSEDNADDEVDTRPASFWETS
Sequence of Dual specificity mitogen-activated protein kinase kinase 1 (Q02750 whole entry): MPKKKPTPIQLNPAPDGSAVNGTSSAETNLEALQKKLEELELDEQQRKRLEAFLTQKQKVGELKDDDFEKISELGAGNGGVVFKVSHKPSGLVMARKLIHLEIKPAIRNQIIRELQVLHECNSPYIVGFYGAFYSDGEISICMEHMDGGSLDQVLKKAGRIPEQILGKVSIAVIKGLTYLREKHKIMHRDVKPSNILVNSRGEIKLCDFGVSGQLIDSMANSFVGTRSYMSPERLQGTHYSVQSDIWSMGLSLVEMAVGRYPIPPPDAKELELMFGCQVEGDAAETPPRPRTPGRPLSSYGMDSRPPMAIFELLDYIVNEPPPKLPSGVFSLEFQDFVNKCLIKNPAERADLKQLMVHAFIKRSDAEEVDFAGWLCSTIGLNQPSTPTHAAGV

Q: With O=C(NCCCN1CCOCC1)c1cc(Oc2ccc(NC(=O)c3cn(-c4ccc(F)c(Cl)c4)c4ncccc4c3=O)cc2F)ccn1 as the compound, how does the pIC50 [1] read?
A: The pIC50 was 6.09.

Q: And the Activity [2]?
A: The Activity was “Active”.

Q: And the pIC50 [3]?
A: The pIC50 was 7.33.

Q: What about the Cmax [4] of the same compound?
A: The Cmax was 390 ng/mL.

Q: And the Activity [5]?
A: Its Activity is 58.67%.

Q: And the AUC(0-inf) [6]?
A: The AUC(0-inf) was 3400 ng·h/mL.

Q: What about the Activity [7] of the same compound?
A: The Activity was 11.9%.

Q: And the Activity [8]?
A: Its Activity is 57.38%.

Q: What about the Activity [9] of the same compound?
A: Its Activity is 55.95%.

Q: What about the AUC(0-inf) [10] of the same compound?
A: The AUC(0-inf) was 2870 ng·h/mL.

Q: What about the pIC50 [11] of the same compound?
A: Its pIC50 is less than 4.00.

Q: What about the AUC(0-t) [12] of the same compound?
A: The AUC(0-t) was 3320 ng·h/mL.

Q: What about the viability at […] [13] of the same compound?
A: The viability at […] was 93.1%.

Q: What about the pIC50 [14] of the same compound?
A: The pIC50 was 6.59.

Q: And the pIC50 [15]?
A: The pIC50 was less than 4.00.

Q: What about the Activity [16] of the same compound?
A: Its Activity is “Active”.

Q: And the Activity [17]?
A: Its Activity is 35.16%.

Q: And the Activity [18]?
A: The Activity was 8.89%.

Q: And the AUC(0-t) [19]?
A: Its AUC(0-t) is 2860 ng·h/mL.

Q: And the pIC50 [20]?
A: Its pIC50 is less than 4.00.

Q: What about the Activity [21] of the same compound?
A: The Activity was 11.77%.

Q: What about the Activity [22] of the same compound?
A: The Activity was 2.02%.

Q: What about the Activity [23] of the same compound?
A: Its Activity is 28.68%.

Q: What about the Activity [24] of the same compound?
A: Its Activity is 3.34%.

Q: And the viability at 10 µM [25]?
A: Its viability at 10 µM is 74.3%.

Q: What about the half-life [26] of the same compound?
A: Its half-life is 2.5 h.

Q: And the Activity [27]?
A: Its Activity is 12.65%.

Q: And the Activity [28]?
A: The Activity was “Active”.

Q: What about the Activity [29] of the same compound?
A: Its Activity is 7.49%.

Q: And the “Ratio IC50” value [30]?
A: Its value is 2.4.

Q: What about the Cmax [31] of the same compound?
A: The Cmax was 1630 ng/mL.

Q: What about the Activity [32] of the same compound?
A: The Activity was 5.57%.

Q: And the viability at 5 µM [33]?
A: Its viability at 5 µM is 85.2%.

Q: And the half-life [34]?
A: Its half-life is 4.5 h.

Q: What about the bioavailability [35] of the same compound?
A: The bioavailability was 13.2%.
